Laboratory results from ChEMBL document CHEMBL5518211, “Design, Synthesis, and Antitumor Activity Evaluation of Novel VISTA Small Molecule Inhibitors” (J Med Chem, 2024).

Legend:
[1] = biological target: T1, V-type immunoglobulin domain-containing suppressor of T-cell activation (Mus musculus, UniProt Q9D659); assay: Binding affinity to mouse VISTA ECD assessed as dissociation constant by MST analysis
T1 sequence (Q9D659 whole entry): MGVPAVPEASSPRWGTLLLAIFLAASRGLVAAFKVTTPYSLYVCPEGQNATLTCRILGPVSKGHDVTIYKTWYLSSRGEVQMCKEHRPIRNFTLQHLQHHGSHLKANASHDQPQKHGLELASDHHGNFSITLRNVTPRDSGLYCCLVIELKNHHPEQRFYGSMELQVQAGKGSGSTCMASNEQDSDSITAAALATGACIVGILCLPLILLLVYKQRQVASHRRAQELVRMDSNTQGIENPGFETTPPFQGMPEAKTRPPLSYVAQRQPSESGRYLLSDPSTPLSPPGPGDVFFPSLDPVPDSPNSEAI

[2] = biological target: T2, V-type immunoglobulin domain-containing suppressor of T-cell activation (Homo sapiens, UniProt Q9H7M9)
T2 sequence (Q9H7M9 whole entry): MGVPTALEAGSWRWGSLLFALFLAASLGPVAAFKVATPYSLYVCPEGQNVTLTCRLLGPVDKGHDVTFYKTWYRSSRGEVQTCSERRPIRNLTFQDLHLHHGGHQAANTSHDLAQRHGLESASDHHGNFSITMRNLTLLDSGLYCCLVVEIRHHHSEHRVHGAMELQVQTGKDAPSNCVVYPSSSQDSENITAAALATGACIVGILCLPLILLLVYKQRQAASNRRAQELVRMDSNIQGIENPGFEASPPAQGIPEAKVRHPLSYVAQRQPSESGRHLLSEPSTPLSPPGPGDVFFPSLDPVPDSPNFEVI
Description: Binding affinity to human VISTA assessed as dissociation constant by MST analysis

Row | Kd [1] | Kd [2] | SMILES
1 | 647 nM |  | Cc1ccc2nc(Nc3nc(O)cc(CSc4nnc(C)s4)n3)nc(C)c2c1
2 |  | 4730 nM | COC1C=C(CNCCNC(C)=O)N=C(Nc2cccc(O)c2)N1 (configuration not stated)
